Literature values in US20080200434A1, “Chemical Target-Binding Compositions” (priority 2006, published 2008).

How the values were obtained:
[1] = chronic exposure (Hubbard, S. A. 1998)
[2] = aqueous association with glucose; Lorand and Edwards 1959

| Structure (SMILES) | no observed adverse effect level [1] | Kd [2] |
| --- | --- | --- |
| OB(O)O [boric acid] | 9-43 mg boron/kg/day |  |
| OB(O)c1ccccc1 [phenylboronic acid] |  | 9.1 mM |
